Here are results for 1 compound from patent US20190032014A1, “USING MICROBIOTA METABOLITES TO DIFFERENTIATE NAÏVE T-CELLS AND RELATED METHODS TO INDUCE OR PREVENT INFLAMMATORY CONDITIONS” (THE TEXAS A&M UNIVERSITY SYSTEM, priority 2016, published 2019).

The structures appear in SMILES notation. Entries after “also recorded” stand apart in the source; their conditions may differ.

Assay [1] deals with CD4+ CD25− naïve T cells. As to the kind of experiment: In vitro naïve T cell differentiation, Th2-skew (IL-4+). Format: cell-based, C57BL/6 mice. The note with it: Th2 skewing conditions; vs solvent control. As to the method:
When naïve CD4+ CD25− cells were cultured 72 hours in αCD3/28 coated wells with Th0-, Th1- or Th2-skew cytokines and indole or solvent control, followed by stimulation with PMA, Ionomycin and Golgi Plug for the last 5 hours of culture, no effect on the % of Th1 and Th2 cells was observed (in contrast to the significant effect that indole has on Treg and Th17 cells; see FIGS. 2A and 2B).
CD4+ CD25− T cells were isolated to high purity (>98%) from the pooled spleen and mesenteric lymph nodes of C57BL/6 mice (Jackson Labs) with a BD FACS Aria II flow cytometer. Fc Block (BD), αCD4-efluor450 (eBioscience clone GK1.5) and αCD25-PECy7 (eBioscience clone PC61.5) antibodies were used for staining before sorting.
For Th1-skew: 5 ng/mL IL-12 (Peprotech cat. #210-12) and 10 µg/mL αIL-4 (BioXCell clone 11B11) were added to culture. For Th2-skew: 10 ng/mL IL-4 (Peprotech) and 10 μg/mL αIFN-γ (BioXCell clone R4-6A2) were added to culture. For Th17-skew: 10 ng/mL IL-6 (Peprotech), 5 ng/mL IL-23 (R&D), 0.5 ng/mL TGF-β (Peprotech), 10 μg/mL al-4 (BioXCell clone 11B11), and 10 μg/mL αIFN-γ (BioXCell clone R4-6A2) were added to culture. For Treg-skew: 2 ng/mL TGF-β (Peprotech) and 100 U/mL IL-2 (Roche) were added to culture. Sodium Propionate, sodium acetate, sodium butyrate and sodium chloride (all from Sigma-Aldrich) were solubilized in media and added to culture. […]

Assay [2] has as its system effector T cell proliferation. As to the kind of experiment: Suppression assay of effector T cell proliferation by iTregs. Format: cell-based, mice. As to the method: FOXP3-EGFP naïve CD4+ CD25− cells cultured in αCD3/28 coated wells with Treg-skew cytokines and indole or solvent control were cultured for 72 hours, and assessed for FoxP3 expression and proliferation by CFSE dilution.
Specifically, FIG. 13 graphically illustrates the results of the suppression assay, showing the suppression of T-cell proliferation as determined by IL-2 production (an essential marker of T-cell proliferation) with increased proportions of Tregs added to co-cultures with effector T-cells..
After 72 h, cells are stimulated with PMA/ionomycin (10 ng/mL PMA, […] ionomycin). For flow cytometry, cells are treated with Golgi plug (Brefeldin A) for four hours and then stained with fluorophore-conjugated mAbs against both inflammatory (e.g., IL-6, IL-12, IL-17, TNF-α) and anti-inflammatory (e.g., IL-10, IL-35, TGF-β) cytokines. Samples are stained with the maximum number of antibodies. Furthermore, expression of established Treg markers (FOXP3, CD25hi, CD103, CD62L, GITR, PD-1, CD152, CD127, ICOS, Granzyme-B) [Vignali, D. A., L. W. Collison, and C. J. Workman, Nat Rev Immunol 8(7):523-32. (2008); Chen, J., et al., Int Immunopharmacol 11(5):610-7 (2011)] and markers of an inflammatory phenotype (RORγT) can be analyzed. […] The effect of the TDMMs on suppression of effector T cell proliferation is determined as described for FIG. 4. […]

Assay [3] concerns TGF-β receptor / pSMAD2/3. As to the kind of experiment: TGF-β receptor expression and SMAD2/3 activity. Format: cell-based. On the procedure: (§1) Indole and 5-HI were assessed for impact on TGF-β receptor expression and SMAD2/3 activity. […] Indole and 5-HI were also assessed for impact on IL-6 receptor levels and subsequent STAT3 activity.
Assay [4] relates to IL-6 receptor / pSTAT3. As to the kind of experiment: IL-6 receptor levels and STAT3 activity. In kind it is cell-based. As to conditions: vs control. On the procedure:
as §1

The test system of assay [5] is mTOR. As to the kind of experiment: mTOR activation (% P-S6) in conditioned T cells. Format: cell-based. The note with it: matured conditioned T cells. The source says:
The mechanistic target of rapamycin (mTOR) is a core component in multiple protein complexes that have significant influence on various cellular processes including cell growth, differentiation, and even enteropathies in the intestine. Accordingly, the interaction of indole and 5-HI on mTor activation was investigated.

The test system of assay [6] is naïve T cells obtained from humans. As to the kind of experiment: Skewing of naïve T cells obtained from humans. In kind it is cell-based.
Assay [7] concerns T cells of spleen and mesenteric lymph nodes. As to the kind of experiment: In vivo acute T cell activation (αCD3) in spleen and MLN. As to conditions: administered with αCD3 at 0 and 48 hrs. More on the design: species or system mice.
Procedure: After 52 additional hours, the spleens were harvested and homogenized. Cells were plated, stimulated with PMA/lonomycin, stained for the indicated T cell markers, and subjected to FACS analysis. The graphs show the % IFN-γ+ CD4+ cells (FIG. 26A), the % IFN-γ+ CD4+ CD44^low cells (FIG. 26B), and the % IFN-γ+ CD4+ CD44^high cells (FIG. 26C) resulting from the various treatments. […] The graphs show the % IFN γ+ CD4+ cells (FIG. 27A), the % IFN γ+ CD4+ CD44low cells (FIG. 27B), and the % IFN γ+ CD4+ CD44high cells (FIG. 27C) resulting from the various treatments.
Fifteen μg of αCD3 (BioXcell clone 145-2C11) was administered via intra-peritoneal injection at 0 and 48 hours. […] At 52 hours, spleen and mesenteric lymph nodes were isolated and plated individually at a concentration of 1×10^6 cells/well with RPMI media supplemented with 2-mercaptoethanol, gentamicin, penicillin, and streptomycin+10% FCS (all from Life Technologies) in a 96-well round bottom plate (Falcon). Cells were immediately stimulated for 4 hours and stained. Specifically, for the last four hours of culture, cells were treated with golgi plug (BD), PMA and ionomycin (both from Sigma-Aldrich).
Assay [8] has as its system Th17 transfer colitis. As to the kind of experiment: Th17 transfer colitis murine model. Format: in vivo, Rag-null mice. On the procedure: Finally, the presentation describes a study of the effects of an indole-induced iTreg skew on the course of colitis in a Th17 transfer colitis murine model. […] Briefly, naïve T-cells (CD4+CD25−) were cultured in vitro with cytokines to skew function towards a Th17 phenotype, in the presence of indole or 5-HI, or not. The skewed cultures were transferred to Rag-null mice (lack T- and B-lymphocytes); control mice received no T-cells. Mice were monitored for weight loss (as a measure of inflammation) over several weeks and assessed at indicated timepoints for T-cell phenotype.
The body weight of the mice was monitored from the time of cell transfer to the end point of day 49. […] Next, the Treg, Th17, and Th1 differentiation was assessed in cells obtained from the mesenteric lymph nodes (MLN) of mice administered directly with indole, 5-HI and control. These cells were determined/assayed by FACS for phenotype directly ex vivo from mice that were treated as in FIG. 28.

The test system of assay [9] is FoxP3+ cells. As to the kind of experiment: Homing markers (α4β7, CD62L) on iTreg cells.
[10] abbreviates: MLN, D15 and D45, by the end point.

With `c1ccc2[nH]ccc2c1` [Indole, indole], the “effect on % Th2 cells (IL-4+)” value in assay [1] was “no effect; also recorded: did not influence the development of Th1 and Th2 cells”. Further, the “suppression of effector T cell proliferation” value in assay [2] (indole-conditioned Tregs, 72-hour suppression assay, vs control iTregs (DMF)) is reported as “suppress effector T cell proliferation function”. Further, the “suppression of T-cell proliferation (IL-2 production)” value in assay [2] (indole-induced iTregs vs nTregs or butyrate-induced iTregs) is listed as “stronger suppressive characteristics, than nTregs or iTregs induced by butyrate”. Also, the “% pSMAD2/3+ cells” value in [3] (TGF-β induced, vs 5-HI or DMF control) is “higher”. Moreover, the “% TGF-β receptor+ cells” value in [3] (vs DMF control) was “significantly increase”. Further, in [4], the “% IL-6 receptor+ cells” value is recorded as “decrease” and the “% pSTAT3+ cells / IL-6 induced stat3” value is given as “decrease”. The “% P-S6 (mTOR activation)” value in [5] is listed as “significantly reduced”. Besides, the “skewing effects on Tregs and Th17 cells in human cells” value in [6] is “recapitulated on naïve T cells obtained from humans”. For the same compound, the “Treg differentiation in vivo (MLN)” value in assay [7] (mesenteric lymph nodes) was “synergizes with butyrate for the induction of Treg cells in vivo; also recorded: can augment Treg development in vivo when administered to the subject directly”. Further, the “Th1 differentiation in vivo (% IFN-γ+ CD4+ cells, spleen)” value in assay [7] (spleen) is “suppresses butyrate induction of Th1 cells in vivo”. Further, in [8] (MLN, D15 and D45), the “Treg differentiation in vivo (% FoxP3+ T cells and FoxP3+ levels, MLN)” value was “induced early differentiation of Treg differentiation in vivo”. Further, in assay [8] (setting [10]), the “Th1 differentiation in vivo (% INF-γ+ T cells, Th1/Treg balance, MLN)” value is listed as “suppresses Th1 differentiation in vivo” and the “Th17 differentiation in vivo (% IL-17+ T cells, Th17/Treg balance, MLN)” value is recorded as “suppresses Th17 differentiation in vivo”. In addition, in [8] (mice receiving conditioned Th17 T cells, around day 43, end point day 49), the “weight change (% from starting weight)” value was “increase in body weight”. In addition, in [8] (mouse, in vivo), the “Th17 transfer colitis in vivo (overall)” value is recorded as “inhibits the Th17 transfer colitis in vivo”. The “% of α4β7+ in FoxP3+ cells” value in assay [9] (indole alone) was “increases the % of α4β7+ in FoxP3+ cells”. Besides, in assay [9] (indole combined with retinoic acid (RA)), the “% of α4β7+ in FoxP3+ cells” value is recorded as “amplified when combined with retinoic acid (RA)”. The “% α4β7+ on iTreg cells” value in assay [9] (indole with acetate, propionate or butyrate at multiple concentrations) was “increases α4β7 in the presence of SCFAs, except for high levels of butyrate”. Besides, the “CD62L+ on FoxP3+ cells” value in [9] (with and without retinoic acid (RA)) was “increase of CD62L+ on FoxP3+ cells with and without combination with retinoic acid (RA)”.
